Assay results: patent publication US6509377B1, “Use of a 2-hydroxy-4-trifluoromethylbenzoic acid derivatives as inhibitors of the activation of the nuclear transcription factor NF-κB” (J. Uriach & Cia, S.A., priority 1999, dated 2003)

What was measured:
[1] = Cell viability of 1321N1 cells (EZ4U); format: cell-based; details: human, 1321N1 cells (astrocytoma), read-out: Percentage of cell viability
Protocol: Several cell lines obtained from the American Type Culture Collection (ATCC) were cultured at 37° C. and under a 5% CO2 atmosphere. Each cell line was grown in an appropriate culture medium and within the exponential phase (Table I).
For the cell viability studies 24-well plates were used, where 0.5×10^6 cells/ml (for 24-hour studies), 0.25×10^6 cells/ml (for 48-hour studies) or 0.125×10^6 cells/ml (for 72-hour studies) were incubated. Next, different concentrations of HTB (1-3 mM) were added and cells were incubated for different time periods (37° C., 5% CO2). After incubation, the supernatant from each well was extracted, and cells were washed with culture medium without fetal calf serum. Then, the supernatant was extracted and 200 μl culture medium without fetal calf serum were added to each well. In addition, 20 μl substrate were added to determine cell viability. This method is based on the ability of viable cells to transform the colourless substrate into a coloured substance that is excreted to the supernatant (EZ4U, Biomedica Gmbh.). After incubating cells for 1 hour at 37° C. and 5% CO2, 200 μl supernatant were collected and the absorbance was measured at 450 nm.
The absorbance was also determined at 620 nm as a measure of the existing non-specific value.

[2] = tested on: COX-2; assay: PGE2 production in rat exudate (carrageenan air pouch); format: in vivo; details: oral 3-30 mg/kg, 6 h
Protocol: Lewis rats (175-200 g) were used in this study. Rats were randomly distributed in groups of 5 animals. An, air pouch was produced by subcutaneous injection of 20 ml of sterile air into the intrascapular area of animals in each group. Every two days, 10 ml of air were injected again into the cavity to keep the space open. Seven days after the first injection of air, 2 ml of a 1% carrageenan solution was injected into the air pouch in all groups to produce an inflammatory reaction. Test compound was administered orally 30 min before carrageenan administration. The animals were killed 6 h later and the volume of exudate was measured. The type and number of cells present were determined using standard Wright-Giemsa staining and a Coulter Counter cell counter, respectively. The exudate was centrifuged at 400 g at 4° C. for 7 min and PGE2 concentration was determined by enzyme-immunoassay (Amershan-Biotrak RPN222). The cell pellet was resuspended in 2 ml cold 0.85% NaCl. To eliminate red cell contamination, cells were subjected to a selective cellular lysis by the addition of 6 ml cold water for 20 seconds. The isotonicity of the cellular suspension was restored by the addition of 2 ml 3.5% NaCl. […]

[3] = Adjuvant-induced arthritis in the rat; format: in vivo; details: 10 mg/kg p.o. daily for 28 days, day 28
Protocol: Adjuvant-induced arthritis is characterized by the development, from day 14 after adjuvant injection, of a chronic inflammation of immunological origin in several joints, with accumulation of inflammatory cells and release of cytokines. For this study, male Lewis rats with body weight between 100 and 150 g were used. Before the start of the study animals were acclimated for a period of at least 5 days. Animals were fasted for 18 hours before the study, with water ad libitum. Throughout the study, animals were allowed free access to drinking water, except during observation periods. Groups of five animals were randomized (Sham, Control and Triflusal). The duration of the study was 28 days. Arthritis was induced on day 1 of the study by subplantar administration of 0.1 ml of an emulsion formed with 10 mg M. butyricum and 10 ml Freund's incomplete adjuvant (Difco) to the right hindpaw of the animals from the Control and Triflusal groups. Sham animals received 0.1 ml Freund's incomplete adjuvant. […] On day 28 of the development of arthritis, the volume of the contralateral paw to that receiving the adjuvant injection was determined using a UGO BASILE 7150 plethysmometer. The inhibition of the increase in volume was calculated as follows: % Inh.=100−((T-S)/(C-S))*100 Where: T=Triflusal group; C=Control group; and S=Sham group

Row | SMILES | viability at 0 h, 1 mM ([1]; 1 mM HTB, 0 hours) [%] | viability at 2 h, 1 mM ([1]; 1 mM HTB, 2 hours) [%] | viability at 5 h, 1 mM ([1]; 1 mM HTB, 5 hours) [%] | viability at 24 h, 1 mM ([1]; 1 mM HTB, 24 hours) [%] | viability at 0 h, 3 mM ([1]; 3 mM HTB, 0 hours) [%] | viability at 2 h, 3 mM ([1]; 3 mM HTB, 2 hours) [%] | viability at 5 h, 3 mM ([1]; 3 mM HTB, 5 hours) [%] | viability at 24 h, 3 mM ([1]; 3 mM HTB, 24 hours) [%] | viability at 48 h, 3 mM ([1]; 3 mM HTB, 48 hours) [%] | inhibition of PGE2 production in the exudate [2] | inhibition of the increase in volume of the contralateral paw [3] [%]
1 | O=C(O)c1ccc(C(F)(F)F)cc1O [HTB, 2-hydroxy-4-trifluoromethylbenzoic acid] | 100 | 99.7 | 94.2 | 87.5 | 100 | 85.3 | 67.2 | 62.2 | 17.8 | – | –
2 | CC(=O)Oc1cc(C(F)(F)F)ccc1C(=O)O [triflusal, 2-Acetyloxy-4-trifluoromethylbenzoic acid, reference compound] | – | – | – | – | – | – | – | – | – | dose-dependently inhibits | 63.1±8.0
